Tested on: HUVEC (human umbilical vein endothelial cell) cells
Assay: Tube formation activity on matrigel
Type: cell-based
Set-up: key: −: control; ±: tube almost resembles control; +: inhibition; ++: significant inhibition; +++: complete inhibition
Details: 16-24 hours
Description: In a culture flask previously coated with gelatin, HUVEC (human umbilical vein endothelial cell) cells cultured with a M199 medium (containing 20% FBS, 3 ng/ml bFGF, 100 μg/ml heparin) were treated with trypsin/EDTA, and then number of cells are counted so that number of cells may be 2×10^4 cells/well in a 96-well plate previously coated with matrigel. Samples were then added and cultured in a CO2 culture medium at 37° C. for 16-24 hours.

Row | Compound | Tube Formation (concentration 5 μM) | Tube Formation (concentration 50 μM) | Tube Formation (concentration 100 μM) | Tube Formation (concentration 0.5 μM)
1 | 1-(4-Methoxy-benzenesulfonyl)-5-oxo-4-prop-2-ynyl-piperazine-2-hydroxamate [Example 23] | + | ++ | +++ | 
2 | 1-Cyclopropyl-5-hydroxymethyl-4-(4-methoxy-benzenesulfonyl)-5-oxo-piperazin-2-one [Example 27] | ++ | ++ |  | 
3 | 4-Allyl-1-(4-methoxy-benzenesulfonyl)-5-oxo-piperazine-2-hydroxamate [Example 21] | ± | + |  | 
4 | 4-Cyclopropyl-1-(4-methoxy-benzenesulfonyl)-5-oxo-piperazine-2-hydroxamate [Example 17] | + | + | ++ | 
5 | COc1ccc(S(=O)(=O)N2CC(=O)N(CCN3CCCCC3)CC2C(=O)NO)cc1.Cl (centres unmarked) [Example 9, 1-(4-Methoxy-benzenesulfonyl)-5-oxo-4-(2-piperidin-1-yl-ethyl)-piperazine-2-hydroxamate hydrochloride] | − | ± |  | 
6 | COc1ccc(S(=O)(=O)N2CC(=O)N(CCN3CCOCC3)CC2C(=O)NO)cc1.Cl (centres unmarked) [Example 11, 1-(4-Methoxy-benzenesulfonyl)-4-(2-morpholin-4-yl-ethyl)-5-oxo-piperazine-2-hydroxamate hydrochloride] | ± | + |  | 
7 | COc1ccc(S(=O)(=O)N2CC(=O)N(Cc3ccccn3)CC2C(=O)NO)cc1.Cl (centres unmarked) [Example 13, 1-(4-Methoxy-benzenesulfonyl)-5-oxo-4-pyridin-2-yl-methyl-piperazine-2-hydroxamate hydrochloride] | ± | + | + | 
8 | CCCCN1CC(C(=O)O)N(S(=O)(=O)c2ccc(OC)cc2)CC1=O (centres unmarked) [Example 26, 4-Butyl-1-(4-methoxy-benzenesulfonyl)-5-oxo-piperazine-2-carboxylic acid] | ± | + | ++ | 
9 | C#CCN1CC(C(=O)O)N(S(=O)(=O)c2ccc(-c3ccc(Br)cc3)cc2)CC1=O (centres unmarked) [Example 35, 1-(4′-Bromo-biphenyl-4-sulfonyl)-5-oxo-4-prop-2-ynyl-piperazine-2-carboxylic acid] | ++ | +++ |  | ++
10 | O=C(O)C1CN(Cc2ccccc2)C(=O)CN1S(=O)(=O)c1ccc(-c2ccc(Br)cc2)cc1 (centres unmarked) [Example 37, 4-Benzyl-1-(4′-bromo-biphenyl-4-sulfonyl)-5-oxo-piperazine-2-carboxylic acid] | ++ | +++ |  | ++
11 | CCCCOCCCN1CC(C(=O)O)N(S(=O)(=O)c2ccc(-c3ccc(Br)cc3)cc2)CC1=O (centres unmarked) [Example 41, 1-(4′-Bromo-biphenyl-4-sulfonyl)-4-(3-butoxy-propyl)-5-oxo-piperazine-2-carboxylic acid] | ++ | +++ |  | ++
12 | CN(C)CCCN1CC(C(=O)O)N(S(=O)(=O)c2ccc(-c3ccc(Br)cc3)cc2)CC1=O (centres unmarked) [Example 43, 1-(4′-Bromo-biphenyl-4-sulfonyl)-4-(3-dimethylamino-propyl)-5-oxo-piperazine-2-carboxylic acid] | ++ | ++ |  | +

Reference: patent US7223751B2, “Sulfonamide derivatives, intermediate thereof, its preparation methods, and pharmaceutical composition comprising the same” (Kolon Ind. Inc., priority 2001, dated 2007)
